Usually IC50 stands for the concentration that inhibits the measured activity by half.

One assay deals with JAK2 (Homo sapiens (Human), UniProt O60674). Description: JAK2 LANCE Ultra kinase assay. In kind it is biochemical. The note with it: 12 uM ATP.
Assay [1] is described as follows: Collagen-induced rheumatoid arthritis model, clinical score. Details: key: 0-4 per limb by redness/deformity, max 16 per animal. Conditions: clinical score 0-16 per animal, Day 0 (before modeling). In kind it is in vivo, mice. Here is the method:
(§1) The effects of compounds H07, H12, H14, H25, H30, H39 and H44 on rheumatoid arthritis in […] were determined after long term administration by using Lewis male […] (Beijing Vital River Laboratory Animal Technology Co., Ltd.), aged 5-6 weeks and weighing […] as test animals. The anti-inflammatory pharmacodynamics characteristic of the compounds of the invention was discussed.
(§2) A certain amount of compounds were taken and dissolved in 4% Tween 80/0.5% hydroxy propyl methyl cellulose solution. A volume of intragastric administration of mice was 10 ml/kg.
(§3) Collagen type II was dissolved in 0.1M acetic acid and kept in a 4° C. refrigerator overnight at a collagen concentration of 4 mg/mL. Same volume of incomplete Freund adjuvant (Sigma, USA) was added in collagen before injection in test, which was emulsified high speed homogenizer (30000 rpm) to prepare a collagen emulsion. This procedure was carried out on ice.
(§4) Mice were immunologically injected with the collagen emulsion by two separate times for modeling on days 1 and 7 (the day before modeling was day 0). 0.1 ml of collagen emulsion prepared as above was injected intradermally into a root of tail at a single point, and 0.2 ml was injected intradermally into back at two points. The animals were subjected to clinical score and paw volume test from day 10 to day 14 after modeling. Animals successfully modeled (average clinical score≥3 points/animal) were assigned to each administration group, with each group included 10 animals. They were administrated intragastrically with above compounds or resolvents at a dosage of 10 mg/kg twice/day, and administrated intragastrically with methotrexate (2 mg/kg, Sigma, USA) every three days, until day 27. During the test, the […] were scored twice a week, and the paw volume and body weight were measured twice.
(§5) According to the different degrees of lesions (redness and joint deformation), the scores were ranged from 0 to 4 points, with the highest score of 4 points for each limb and 16 points for each animal. Scoring standards are as follows: 0, no redness; 1, slight redness on mid legs (tarsals) or ankles; 2, slight redness from ankles to mid legs (tarsals); 3, medium redness from ankles to tarsometatarsal joints; 4, severe redness from toes or fingers to ankles or wrist joints.

A further assay deals with Lewis male mice. Described as above. Format: in vivo. Also noted: key: 0-4 per limb by redness/deformity, max 16 per animal. The note with it: clinical score 0-16 per animal, compounds 10 mg/kg twice/day, methotrexate 2 mg/kg every three days. The protocol:
as §1, §2, §3, §4, §5

For a further assay, the target named is JAK1 (Homo sapiens (Human), UniProt P23458). Briefly: JAK1 LANCE Ultra kinase assay. Format: biochemical. The procedure, abridged:
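JAK1 preincubated with compound 10 min at room temperature, then ULight-JAK-1 peptide/ATP added for 90 min at room temperature; stopped with EDTA, Eu-W1024 anti-phosphotyrosine TR-FRET read after 60 min. Inhibition normalised to DMSO and blank wells; IC50 from curve fit.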
In general terms: TR-FRET usually uses a lanthanide donor and a delayed reading to cut background.

Another assay deals with JAK3 (Homo sapiens (Human), UniProt P52333). Description: JAK3 LANCE Ultra kinase assay. The note with it: 4 uM ATP. Format: biochemical.
JAK3, sequence (P52333 whole entry): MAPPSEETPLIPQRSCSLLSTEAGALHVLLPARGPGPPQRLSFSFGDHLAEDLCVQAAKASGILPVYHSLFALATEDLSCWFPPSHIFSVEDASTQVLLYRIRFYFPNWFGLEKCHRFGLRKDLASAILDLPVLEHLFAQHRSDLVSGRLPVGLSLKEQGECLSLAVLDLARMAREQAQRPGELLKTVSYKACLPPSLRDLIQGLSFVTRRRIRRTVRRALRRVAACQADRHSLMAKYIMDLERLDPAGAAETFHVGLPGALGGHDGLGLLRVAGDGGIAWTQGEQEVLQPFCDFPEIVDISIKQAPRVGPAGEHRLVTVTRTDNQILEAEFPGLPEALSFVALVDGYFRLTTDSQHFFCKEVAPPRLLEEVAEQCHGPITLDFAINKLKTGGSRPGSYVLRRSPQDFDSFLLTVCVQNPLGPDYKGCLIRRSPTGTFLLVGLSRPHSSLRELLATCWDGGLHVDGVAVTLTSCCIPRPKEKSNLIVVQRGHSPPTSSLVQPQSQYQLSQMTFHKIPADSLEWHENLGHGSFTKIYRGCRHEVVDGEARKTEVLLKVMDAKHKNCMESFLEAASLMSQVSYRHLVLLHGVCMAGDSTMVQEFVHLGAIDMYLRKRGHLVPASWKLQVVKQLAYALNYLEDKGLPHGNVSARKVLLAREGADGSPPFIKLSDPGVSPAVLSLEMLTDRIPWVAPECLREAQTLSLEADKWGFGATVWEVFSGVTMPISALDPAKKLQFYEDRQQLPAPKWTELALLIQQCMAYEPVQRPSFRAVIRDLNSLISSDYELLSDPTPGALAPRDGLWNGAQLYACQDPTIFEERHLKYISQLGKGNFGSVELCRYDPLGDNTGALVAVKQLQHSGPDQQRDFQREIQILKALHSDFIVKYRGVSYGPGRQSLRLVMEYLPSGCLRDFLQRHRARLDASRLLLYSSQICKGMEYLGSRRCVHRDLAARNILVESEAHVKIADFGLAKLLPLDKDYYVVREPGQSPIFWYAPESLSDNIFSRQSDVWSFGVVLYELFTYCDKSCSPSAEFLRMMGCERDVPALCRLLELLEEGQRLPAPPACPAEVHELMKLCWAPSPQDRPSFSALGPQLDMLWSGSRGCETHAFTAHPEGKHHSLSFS

JAK1, sequence (P23458 whole entry): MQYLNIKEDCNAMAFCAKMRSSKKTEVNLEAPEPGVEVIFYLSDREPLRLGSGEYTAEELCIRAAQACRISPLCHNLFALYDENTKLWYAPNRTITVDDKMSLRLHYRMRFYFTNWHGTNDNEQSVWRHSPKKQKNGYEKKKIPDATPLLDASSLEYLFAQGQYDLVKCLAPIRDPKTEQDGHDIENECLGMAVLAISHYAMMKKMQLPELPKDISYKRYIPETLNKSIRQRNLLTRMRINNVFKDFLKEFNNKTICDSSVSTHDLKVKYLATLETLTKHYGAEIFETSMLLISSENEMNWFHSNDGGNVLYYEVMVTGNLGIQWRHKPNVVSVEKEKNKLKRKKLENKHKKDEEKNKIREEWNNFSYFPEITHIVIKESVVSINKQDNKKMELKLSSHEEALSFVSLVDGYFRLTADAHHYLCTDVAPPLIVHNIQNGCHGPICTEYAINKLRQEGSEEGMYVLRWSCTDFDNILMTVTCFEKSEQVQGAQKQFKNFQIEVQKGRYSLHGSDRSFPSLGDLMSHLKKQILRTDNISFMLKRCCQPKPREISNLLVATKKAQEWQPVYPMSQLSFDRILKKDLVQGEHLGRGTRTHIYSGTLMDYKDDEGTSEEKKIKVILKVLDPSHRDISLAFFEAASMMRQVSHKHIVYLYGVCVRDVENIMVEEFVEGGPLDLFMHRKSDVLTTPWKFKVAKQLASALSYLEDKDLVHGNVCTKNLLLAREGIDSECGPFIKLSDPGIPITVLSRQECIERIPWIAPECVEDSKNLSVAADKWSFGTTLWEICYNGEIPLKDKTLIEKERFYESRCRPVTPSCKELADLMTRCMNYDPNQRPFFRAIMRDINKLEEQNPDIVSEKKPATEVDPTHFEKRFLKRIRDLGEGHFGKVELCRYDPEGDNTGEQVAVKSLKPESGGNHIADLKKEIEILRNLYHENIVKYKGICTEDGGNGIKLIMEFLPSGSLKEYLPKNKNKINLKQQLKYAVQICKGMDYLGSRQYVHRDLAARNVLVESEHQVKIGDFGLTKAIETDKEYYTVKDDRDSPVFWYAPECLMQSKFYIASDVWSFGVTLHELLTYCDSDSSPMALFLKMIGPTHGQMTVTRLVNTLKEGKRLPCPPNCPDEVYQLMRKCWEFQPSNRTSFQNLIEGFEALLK
JAK2, sequence (O60674 whole entry): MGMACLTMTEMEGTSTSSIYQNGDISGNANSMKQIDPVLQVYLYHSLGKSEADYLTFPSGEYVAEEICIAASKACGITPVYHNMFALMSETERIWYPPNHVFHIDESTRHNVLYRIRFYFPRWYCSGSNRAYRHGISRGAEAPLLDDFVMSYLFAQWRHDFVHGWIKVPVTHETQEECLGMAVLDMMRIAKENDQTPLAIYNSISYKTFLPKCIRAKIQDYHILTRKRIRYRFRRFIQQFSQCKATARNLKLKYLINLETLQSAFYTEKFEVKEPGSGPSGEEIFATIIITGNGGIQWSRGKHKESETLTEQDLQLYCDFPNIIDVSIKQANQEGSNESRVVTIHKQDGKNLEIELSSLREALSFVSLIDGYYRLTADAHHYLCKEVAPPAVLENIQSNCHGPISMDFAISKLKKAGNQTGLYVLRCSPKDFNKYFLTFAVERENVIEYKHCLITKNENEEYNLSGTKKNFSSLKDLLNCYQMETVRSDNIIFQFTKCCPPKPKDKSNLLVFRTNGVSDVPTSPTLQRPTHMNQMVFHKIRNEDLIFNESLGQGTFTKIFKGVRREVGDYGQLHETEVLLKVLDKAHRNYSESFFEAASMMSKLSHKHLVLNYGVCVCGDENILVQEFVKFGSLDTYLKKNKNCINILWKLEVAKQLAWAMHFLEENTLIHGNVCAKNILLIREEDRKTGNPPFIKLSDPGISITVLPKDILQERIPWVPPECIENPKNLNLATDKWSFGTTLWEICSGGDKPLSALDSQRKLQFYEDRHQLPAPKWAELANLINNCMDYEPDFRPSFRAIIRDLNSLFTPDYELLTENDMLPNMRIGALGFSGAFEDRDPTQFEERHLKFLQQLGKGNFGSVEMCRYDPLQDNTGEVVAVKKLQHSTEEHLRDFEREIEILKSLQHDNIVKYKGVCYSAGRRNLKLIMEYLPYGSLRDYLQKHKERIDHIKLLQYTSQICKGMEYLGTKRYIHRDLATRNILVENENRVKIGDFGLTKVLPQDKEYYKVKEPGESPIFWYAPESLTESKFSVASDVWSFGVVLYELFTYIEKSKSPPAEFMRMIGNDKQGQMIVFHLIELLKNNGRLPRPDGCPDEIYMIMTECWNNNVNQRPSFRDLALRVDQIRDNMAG

Turning to `CN(c1c(C#N)cnc2[nH]ccc12)[C@H]1C[C@@H]2CN(C(=O)Nc3nc(OCC(C)(C)N)ns3)C[C@@H]2C1` [Compound H44, (3aR,5s,6aS)-5-((5-cyano-1H-pyrrolo[2,3-b]pyridin-4-yl)(methyl)amino)-N-(3-(2-amino-2-methyl-propoxy)-1,2,4-thiadiazole-5-yl)hexahydrocyclopentadiene[c]pyrrole-2(1H)-carboxamide], the IC50 came out at 15.6 nM on JAK2, 0.67 nM on JAK1 (38 uM ATP) and 80 nM on JAK3. In addition, the “Score Day 0” value in assay [1] was found to be 0.00 ± 0.00. For the same compound, the “Score Day 13” value in the assay with Lewis male mice (Day 13) amounted to 2.80 ± 0.45. Moreover, the “Score Day 14” value with Lewis male mice (Day 14) came out at 3.40 ± 0.27. In the assay on Lewis male mice (Day 18), the “Score Day 18” value worked out at 2.13 ± 0.21. In addition, in the assay on Lewis male mice (Day 21), the “Score Day 21” value turned out to be 1.70 ± 0.10. Besides, the “Score Day 25” value with Lewis male mice (Day 25) amounted to 0.83 ± 0.48. Further, in the assay on Lewis male mice (Day 27), the “Score Day 27” value is listed as 0.64 ± 0.34. For the same compound, the JAK2/JAK1 on JAK1 (ratio of IC50 JAK2 to IC50 JAK1) is recorded as 23.28.
